The values that follow come from the supplement of paper PMC9673313.

Compound in this experiment: Clc1ccc2c(N3CCN(CCCN4CCN(c5ccnc6cc(Cl)ccc56)CC4)CC3)ccnc2c1 [piperaquine]
The protocol:
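Kenyan Plasmodium falciparum field isolates (2008-2021) were tested in a SYBR Green I growth-inhibition assay, either immediately ex vivo (fresh samples) or in vitro after culture adaptation. Cultures were at 1% parasitemia and 2% hematocrit, incubated with serial drug dilutions for 72 h at 37 °C (5% O2, 5% CO2), then read by fluorescence. IC50 was fitted by non-linear regression of the dose-response curve.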

For KCH 10/05/113, the IC50 growth inhibition is 0.00858 µg/mL. For the test system KDH 19/12/0156, the IC50 growth inhibition stood at 0.0196 µg/mL. Take KOM 20/01/0174: the IC50 growth inhibition is 0.062 µg/mL. For the test system KOM 21/05/0265, the IC50 growth inhibition is 0.0027 µg/mL.

With MGT 14/03/0015, the IC50 growth inhibition is 0.00779 µg/mL. The result for KOM 21/03/0292 reads 0.0137 µg/mL; that for KDH 21/08/0254, 0.0379 µg/mL; that for KCH 15/10/339, 0.00252 µg/mL. Next, KDH 12/10/918: 0.0132 µg/mL.

With 601-0189, the IC50 growth inhibition is 0.0275 µg/mL. For the test system KDH 12/11/923, the IC50 growth inhibition is 0.0145 µg/mL. For the test system 601-0157, the IC50 growth inhibition is 0.0068 µg/mL. Take KSI 18/09/0004: the IC50 growth inhibition came to 0.00835 µg/mL. For the test system KOM 18/07/0004, the IC50 growth inhibition stood at 0.0101 µg/mL. Consider KCH 17/09/373, for which the IC50 growth inhibition came to 0.00701 µg/mL.

Consider KOM 21/03/0254, for which the IC50 growth inhibition came to 0.0021 µg/mL.

With KSI 14/03/507, the IC50 growth inhibition turned out to be 0.00669 µg/mL. For KDH 19/12/0155, the IC50 growth inhibition amounted to 0.0208 µg/mL. 601-0186: the IC50 growth inhibition was found to be 0.0596 µg/mL. Consider KDH 10/02/0354, for which the IC50 growth inhibition stood at 0.016 µg/mL. The result for KSI 16/07/912 reads 0.0151 µg/mL; that for MGT 21/08/0119, 0.0896 µg/mL. Regarding KDH 20/01/0163, the IC50 growth inhibition turned out to be 0.0245 µg/mL. For KSI 10/09/099, the IC50 growth inhibition stood at 0.0338 µg/mL. In the case of KOM 19/12/0149, the IC50 growth inhibition amounted to 0.0283 µg/mL. On to MGT 21/05/0116, for which the IC50 growth inhibition was determined as 0.0046 µg/mL. Consider KOM 16/07/0611, for which the IC50 growth inhibition is 0.0143 µg/mL. As to KCH 10/04/099, the IC50 growth inhibition amounted to 0.517 µg/mL. Turning to KCH 11/04/143, the IC50 growth inhibition is 0.0205 µg/mL. As for MGT 14/07/0033, the IC50 growth inhibition was determined as 0.00335 µg/mL. As to KOM 20/01/0168, the IC50 growth inhibition came out at 0.0157 µg/mL.

As to MGT 15/10/105, the IC50 growth inhibition turned out to be 0.0197 µg/mL.

Consider KSI 19/12/0048, for which the IC50 growth inhibition came to 0.0353 µg/mL. Next, KDH 16/07/1824: 0.0512 µg/mL. Regarding KSI 12/01/224, the IC50 growth inhibition came out at 0.0193 µg/mL. Turning to KSI 10/9/111, the IC50 growth inhibition was found to be 0.284 µg/mL.

As to KOM 16/07/0609, the IC50 growth inhibition is 0.0181 µg/mL. Consider KOM 15/03/383, for which the IC50 growth inhibition was determined as 0.00453 µg/mL. For the test system KOM 21/03/0256, the IC50 growth inhibition turned out to be 0.0026 µg/mL. Take MDH 18/09/0008: the IC50 growth inhibition was determined as 0.00325 µg/mL.

MGT 14/03/0012: the IC50 growth inhibition was 0.00831 µg/mL.

As for MGT 15/10/104, the IC50 growth inhibition was 0.00335 µg/mL. With KDH 18/07/0001, the IC50 growth inhibition amounted to 0.00119 µg/mL. Regarding KDH 15/06/1657, the IC50 growth inhibition turned out to be 0.00996 µg/mL.

Regarding KOM 21/08/0353, the IC50 growth inhibition came to 0.0415 µg/mL.

In the case of KOM 19/12/151, the IC50 growth inhibition came to 0.0169 µg/mL.

With KSI 10/09/106, the IC50 growth inhibition was found to be 0.201 µg/mL. The result for KOM 14/06/270 reads 0.0171 µg/mL; that for MDH 16/08/153, 0.00762 µg/mL; that for KOM 13/11/104, 0.0175 µg/mL. Consider MGT 13/11/0003, for which the IC50 growth inhibition was 0.0229 µg/mL. With MGT16/01/118, the IC50 growth inhibition turned out to be 0.00304 µg/mL. The result for KOM 16/08/0627 reads 0.0067 µg/mL; that for MGT 21/03/0108, 0.0078 µg/mL.

Turning to KSI 12/08/285, the IC50 growth inhibition came out at 0.0196 µg/mL. As to MGT 14/03/0008, the IC50 growth inhibition came to 0.0272 µg/mL. For the test system 601-0260, the IC50 growth inhibition was found to be 2.46 µg/mL. In the case of KCH 19/04/0010, the IC50 growth inhibition amounted to 0.00314 µg/mL. Next, KSI 14/03/506: 0.0128 µg/mL; MDH 12/01/0063: 0.012 µg/mL; 601-209: 0.0646 µg/mL. As for KSI 21/04/0059, the IC50 growth inhibition was 0.208 µg/mL.

In the case of KOM 21/05/0262, the IC50 growth inhibition was 0.0794 µg/mL. Take KDH 14/05/1402: the IC50 growth inhibition came out at 0.0119 µg/mL. Consider 601-272, for which the IC50 growth inhibition came to 0.0205 µg/mL.

KCH 17/09/374: the IC50 growth inhibition worked out at 0.00492 µg/mL. For KDH 12/10/909, the IC50 growth inhibition is 0.00983 µg/mL. As to KSI 14/03/504, the IC50 growth inhibition turned out to be 0.013 µg/mL. Turning to 601-239, the IC50 growth inhibition was found to be 0.0156 µg/mL.

With MGT 21/08/0122, the IC50 growth inhibition came out at 0.0872 µg/mL. The result for KDH 21/05/0220 reads 0.0025 µg/mL; that for KDH 16/07/1829, 0.00272 µg/mL; that for KDH 21/05/0225, 0.0071 µg/mL.

Regarding KSI 19/06/0027, the IC50 growth inhibition turned out to be 0.00354 µg/mL. Take KCH 15/09/334: the IC50 growth inhibition was 0.00243 µg/mL.
